This is an account of results in patent US8741911B2, “Raf inhibitor compounds” (Eli Lilly and Company, priority 2012, dated 2014).

One assay concerns A375. Briefly: CellTiter-Glo proliferation and viability assay. It counts as cell-based. Conditions: Homo sapiens, A-375, parental A375 B-Raf V600E cells, comparison with A375res.
Another assay has as its system A375res cells. Briefly: CellTiter-Glo proliferation and viability assay in vemurafenib-resistant cells. It counts as cell-based, human. (ATP-based viability assays read luminescence as a measure of living cells.)

In general, IC50 refers to the concentration at which inhibition is half-maximal.

`CCCS(=O)(=O)Nc1ccc(F)c(C(=O)c2c[nH]c3ncc(-c4ccc(Cl)cc4)cc23)c1F` [PLX4032, vemurafenib]: the IC50 was 252 nM with A375 and more than 7000 nM in the assay on A375res cells (Homo sapiens, A375res cells). In addition, the “shift of IC50, A375res versus A375” value in the assay with A375res cells is given as approximately 30 fold.
